# Source: patent US20110319362A1, “STAT3 LIGANDS AND THERAPEUTIC USES THEREOF” (priority 2008, published 2011)
# Where two headings read alike, the source gives them in different places.
# Experiments:
# [1] = test system: MDA-MB-468 cancer cell line; experiment: Cell growth assay (WST-8); type: cell-based; settings: Homo sapiens, MDA-MB-468, 96 h; WST-8, 4 days; read-out: Inhibition of cell growth IC50, MDA-MB-468 cancer cell line
# Experimental: (§1) The effect of STAT3 compounds on cell growth was evaluated by a WST-8 [2-(2-methoxy-4-nitrophenyl)-3-(4-nitrophenyl)-5-(2,4-disulfophenyl)-2H-tetrazolium, monosodium salt assay (Dojindo Molecular Technologies, Inc). Cells (3000-4000 cells in each well) were cultured in 96-well tissue culture plates in medium (200 μL) containing various concentrations of STAT3 compounds for 4 days. At the end of incubation, WST-8 dye (20 μL) was added to each well and incubated for an additional 1-3 h, and then the absorbance was measured in a microplate reader (Molecular Devices) at 450 nm. Cell growth inhibition was evaluated as the ratio of the absorbance of the sample to that of the control.
# [2] = test system: MDA-MB-231 cancer cell line; experiment: Cell growth assay (WST-8); type: cell-based; settings: Homo sapiens, MDA-MB-231, 96 h; WST-8, 4 days; read-out: Inhibition of cell growth IC50, MDA-MB-231 cancer cell line
# Experimental: as §1
# STAT3 protein = molecular target: T1, STAT3 protein (Homo sapiens, UniProt P40763); experiment: In vitro competitive STAT3 binding assay (fluorescence polarization)
# T1 construct: human STAT3 protein (residues 122-722) fused to His-tag; His-tag
# Text: To quantitatively determine the binding affinities of STAT3 inhibitors to STAT3 protein, a sensitive and quantitative in vitro binding assay was developed based upon fluorescence polarization (FP) method. For this FP assay, 5-carboxyfluorescein (5-Fam) was coupled to a phosphopeptide (phospho-Tyr-Leu-Pro-Gln-Thr-Val-amide) with two beta-alanine and one glycine residues as the spacer between 5-Fam and the phosphopeptide to obtain 5-Fam-beta-Ala-beta-Ala-Gly-phospho-Tyr-Leu-Pro-Gln-Thr-Val-amide as the fluorescently tagged tracer, which was named as STT2 peptide. […] The recombinant human STAT3 protein (residues 122-722) fused to His-tag was stable and soluble.
# Competitive binding experiments were carried out using 150 nM of STAT3 protein and 5 nM of STT2 peptide with different concentrations of a tested STAT3 inhibitor. For each experiment, two controls were included. One control contained STAT3 protein and STT2 peptide, and the second control contained STT2 peptide only. The polarization values were measured after 2-3 hours of incubation using an ULTRA READER (Tecan U.S. Inc., Research Triangle Park, N.C.). IC50 values, the inhibitor concentration at which 50% of the fluorescently tagged STT2 peptide is displaced by STAT3 inhibitors, was determined from a plot using nonlinear least-squares analysis using GRAPHPAD PRISM software (GraphPad Software, Inc., San Diego, Calif.). […]
# [3] = FP competitive binding, fluorescently tagged STT2 peptide tracer, read-out: Binding affinities to STAT3 IC50
# T1 sequence (P40763 122-722): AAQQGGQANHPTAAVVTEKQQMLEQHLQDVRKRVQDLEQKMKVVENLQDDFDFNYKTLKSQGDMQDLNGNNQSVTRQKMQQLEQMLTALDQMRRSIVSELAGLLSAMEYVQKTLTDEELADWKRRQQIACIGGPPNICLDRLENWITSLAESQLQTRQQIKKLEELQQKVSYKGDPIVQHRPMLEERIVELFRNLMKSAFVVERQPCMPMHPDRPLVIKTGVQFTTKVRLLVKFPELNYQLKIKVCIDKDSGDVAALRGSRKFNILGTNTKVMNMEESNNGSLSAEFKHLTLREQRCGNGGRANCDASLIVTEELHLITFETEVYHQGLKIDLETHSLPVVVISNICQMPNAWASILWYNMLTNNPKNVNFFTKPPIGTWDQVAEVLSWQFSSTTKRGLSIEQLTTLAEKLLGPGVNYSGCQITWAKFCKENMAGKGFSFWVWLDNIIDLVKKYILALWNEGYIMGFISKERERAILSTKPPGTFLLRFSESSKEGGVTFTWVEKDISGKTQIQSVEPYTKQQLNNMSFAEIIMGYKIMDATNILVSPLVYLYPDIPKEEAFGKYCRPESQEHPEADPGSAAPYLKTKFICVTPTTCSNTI
SMILES,IC50 [1] [µM],IC50 [2] [µM],IC50 (STAT3 protein; [3]) [µM],IC50 (STAT3 protein) [µM]
N[C@@H](Cc1ccc(OP(=O)(O)O)cc1)C(=O)N[C@H]1CCCCC2CC[C@@H](C(=O)N[C@@H](CCC(=O)NC(c3ccccc3)(c3ccccc3)c3ccccc3)C(=O)NCc3ccccc3)N2C1=O (stereo partly drawn),< 10,< 10,< 10,–
NC(=O)CC[C@H](NC(=O)[C@@H]1CCC2CCCC[C@H](NC(=O)[C@@H](N)Cc3ccc(OP(=O)(O)O)cc3)C(=O)N21)C(=O)NCc1ccccc1 (stereo partly drawn),> 100,> 20,–,< 1
CC(=O)N[C@@H](Cc1ccc(OC(C(=O)O)C(=O)O)cc1)C(=O)N[C@H]1CCCCC2CC[C@@H](C(=O)N[C@@H](CCC(N)=O)C(=O)NCc3ccccc3)N2C1=O (stereo partly drawn),> 100,> 50,< 10,–
O=C(CCc1ccccc1)N[C@@H](Cc1ccc(OP(=O)(O)O)cc1)C(=O)N[C@H]1CCCCC2CC[C@@H](C(=O)N[C@@H](CCC(=O)NC(c3ccccc3)(c3ccccc3)c3ccccc3)C(=O)NCc3ccccc3)N2C1=O (stereo partly drawn),> 50,> 100,< 20,–
CCOC(=O)COc1ccc(C[C@H](NC(C)=O)C(=O)N[C@H]2CCCCC3CC[C@@H](C(=O)N[C@@H](CCC(N)=O)C(=O)NCc4ccccc4)N3C2=O)cc1 (stereo partly drawn),> 100,> 100,> 100,–
CCOC(=O)C(Oc1ccc(C[C@H](NC(C)=O)C(=O)N[C@H]2CCCCC3CC[C@@H](C(=O)N[C@@H](CCC(N)=O)C(=O)NCc4ccccc4)N3C2=O)cc1)C(=O)OCC (stereo partly drawn),> 100,> 30,> 100,–
COP(=O)(OC)Oc1ccc(C[C@H](N)C(=O)N[C@H]2CCCCC3CC[C@@H](C(=O)N[C@@H](C)C(=O)NCc4ccccc4)N3C2=O)cc1 (stereo partly drawn),> 100,> 50,–,> 100
CN(C)CCCCNC(=O)[C@@H]1CCC2CCCC[C@H](NC(=O)[C@H](Cc3ccc(OP(=O)(O)O)cc3)NC(=O)OCc3ccccc3)C(=O)N21 (stereo partly drawn),> 100,> 100,< 30,–
CP(=O)(O)Cc1ccc(CCC(=O)N[C@H]2CCCCC3CC[C@@H](C(=O)N[C@@H](CCC(N)=O)C(=O)NCc4ccccc4)N3C2=O)cc1 (stereo partly drawn),> 100,> 100,> 100,–
CN[C@H](Cc1ccc(OCP(=O)(O)O)cc1)C(=O)N[C@H]1CCCCC2CC[C@@H](C(=O)N[C@@H](Cc3c[nH]cn3)C(=O)NCc3ccccc3)N2C1=O (stereo partly drawn),> 100,> 100,< 100,–
CN(C)[C@@H](Cc1ccc(OP(=O)(O)O)cc1)C(=O)N[C@H]1CCCCC2CC[C@@H](C(=O)N[C@@H](CNC(=N)N)C(=O)NCc3ccccc3)N2C1=O (stereo partly drawn),> 100,> 50,< 100,–
CC(=O)N1CCC2CC[C@@H](C(=O)N[C@@H](CCC(N)=O)C(=O)NCc3ccccc3)N2C(=O)[C@@H](NC(=O)[C@@H](N)Cc2ccc(OP(=O)(O)O)cc2)C1 (stereo partly drawn),> 100,> 50,< 5,–
CN[C@@H](Cc1ccc(OP(=O)(O)O)cc1)C(=O)N[C@H]1CCCCC2CC[C@@H](C(=O)N[C@@H](Cc3c[nH]cn3)C(=O)NCc3ccccc3)N2C1=O (stereo partly drawn),> 100,> 50,< 30,–
CC[C@H](NC(=O)[C@@H]1CCC2CCCC[C@H](NC(=O)[C@H](Cc3ccc(OP(=O)(O)O)cc3)NC(=O)OCc3ccccc3)C(=O)N21)C(=O)NCc1ccccc1 (stereo partly drawn),> 30,> 30,–,> 10
CCCCCCCCCCCCCCCCNC(=O)[C@H](CCC(N)=O)NC(=O)[C@@H]1CCC2CCCC[C@H](NC(=O)[C@@H](N)Cc3ccc(OP(=O)(O)O)cc3)C(=O)N21 (stereo partly drawn),< 50,< 50,> 5,–
NCCOCCOCCOCCOCCC(=O)N[C@@H](Cc1ccc(OP(=O)(O)O)cc1)C(=O)N[C@H]1CCCCC2CC[C@@H](C(=O)N[C@@H](CCC(N)=O)C(=O)NCc3ccccc3)N2C1=O (stereo partly drawn),> 100,> 100,< 5,–
CCCCCCCCNC(=O)[C@H](CCC(N)=O)NC(=O)[C@@H]1CCC2CCCC[C@H](NC(=O)[C@H](Cc3ccc(OP(=O)(O)O)cc3)NC)C(=O)N21 (stereo partly drawn),> 100,> 100,< 5,–

SMILES,IC50 [1] [µM],IC50 [2] [µM],IC50 (STAT3 protein; [3]) [µM],IC50 (STAT3 protein) [µM]
CCCCCCCCCCCCNC(=O)[C@H](CCC(N)=O)NC(=O)[C@@H]1CCC2CCCC[C@H](NC(=O)[C@H](Cc3ccc(OP(=O)(O)O)cc3)NC)C(=O)N21 (stereo partly drawn),< 20,< 30,< 5,–
CCCCCCCCCCCCCCCCCCCCNC(=O)[C@H](CCC(N)=O)NC(=O)[C@@H]1CCC2CCCC[C@H](NC(=O)[C@H](Cc3ccc(OP(=O)(O)O)cc3)NC)C(=O)N21 (stereo partly drawn),< 30,< 30,< 5,–
NC(=O)CC[C@H](NC(=O)[C@@H]1CCC2CCCC[C@H](NC(=O)CCc3ccc(OP(=O)(O)O)cc3)C(=O)N21)C(=O)NCc1ccccc1 (stereo partly drawn),> 100,> 100,–,< 5
CCCCCCCCCCCCCCCCNC(=O)[C@H](CCC(N)=O)NC(=O)[C@@H]1CC[C@@H]2CCCC[C@H](NC(=O)[C@H](Cc3ccc(OP(=O)(O)O)cc3)NC(=O)CCN3CCOCC3)C(=O)N21,< 40,< 40,–,< 5
CCCCCCCCCCCCCCCCNC(=O)[C@H](CCC(N)=O)NC(=O)[C@@H]1CC[C@@H]2CCCC[C@H](NC(=O)[C@H](Cc3ccc(OP(=O)(O)O)cc3)NC(=O)CCN3CCN(C)CC3)C(=O)N21,> 20,> 20,–,< 5
CCCCCCCCCCCCCCCCN1CCN(CCC(=O)N[C@@H](Cc2ccc(OP(=O)(O)O)cc2)C(=O)N[C@H]2CCCCC3CC[C@@H](C(=O)NCCCC(O)CO)N3C2=O)CC1 (stereo partly drawn),< 20,< 20,< 10,–
CCCCCCCCCCCCCCCCN1CCN(CCC(=O)N[C@@H](Cc2ccc(OP(=O)(O)O)cc2)C(=O)N[C@H]2CCCCC3CC[C@@H](C(=O)NCCc4cnc[nH]4)N3C2=O)CC1 (stereo partly drawn),< 10,< 10,< 10,–
CCCCCCCCCCCCCCCCN1CCN(CCC(=O)N[C@@H](Cc2ccc(OP(=O)(O)O)cc2)C(=O)N[C@H]2CCCCC3CC[C@@H](C(=O)N[C@@H](CCC(N)=O)C(=O)NCc4ccccc4)N3C2=O)CC1 (stereo partly drawn),< 10,< 10,< 1,–
CCCCCCCCCCCCCCCCN1CCN(CCC(=O)N[C@@H](Cc2ccc(OP(=O)(O)O)cc2)C(=O)N[C@H]2CCCCC3CC[C@@H](C(=O)N[C@H](CO)Cc4c[nH]cn4)N3C2=O)CC1 (stereo partly drawn),< 20,< 20,< 5,–
CCCCCCCCCCCCCCCCN1CCN(CCC(=O)N[C@@H](Cc2ccc(OP(=O)(O)O)cc2)C(=O)N[C@H]2CCCCC3CC[C@@H](C(=O)N[C@@H](Cc4c[nH]cn4)C(=O)NCc4ccccc4)N3C2=O)CC1 (stereo partly drawn),< 30,< 30,< 5,–
CCCCCCCCCCCCCCCCN1CCN(CCC(=O)N[C@@H](Cc2ccc(OP(=O)(O)O)cc2)C(=O)N[C@H]2CCCCC3CC[C@@H](C(=O)NCCc4nnc[nH]4)N3C2=O)CC1 (stereo partly drawn),< 20,< 20,< 5,–
CCCCCCCCCCCCCCCCN1CCN(CCC(=O)N[C@@H](Cc2ccc(OP(=O)(O)O)cc2)C(=O)N[C@H]2CCCCC3CC[C@@H](C(=O)NCCCCNC)N3C2=O)CC1 (stereo partly drawn),< 50,< 50,< 10,–
CCCCCCCCCCCCCCCCN1CCN(CCC(=O)N[C@@H](Cc2ccc(OP(=O)(O)O)cc2)C(=O)N[C@H]2CCCCC3CC[C@@H](C(=O)NCCCCN(C)C)N3C2=O)CC1 (stereo partly drawn),< 50,< 100,< 20,–
CCCCCCCCCCCCCCCCN1CCN(CCC(=O)N[C@@H](Cc2ccc(OP(=O)(O)O)cc2)C(=O)N[C@H]2CCCCC3CC[C@@H](C(=O)NCCc4cn[nH]c4)N3C2=O)CC1 (stereo partly drawn),< 20,< 20,< 5,–
CCCCCCCCCCCCCCCCN1CCN(CCC(=O)N[C@@H](Cc2ccc(OP(=O)(O)O)cc2)C(=O)N[C@H]2CCCCC3CC[C@@H](C(=O)NCCN4CCNC4=O)N3C2=O)CC1 (stereo partly drawn),< 20,< 30,< 5,–
CCCCCCCCCCCCCCCCN1CCN(CCC(=O)N[C@@H](Cc2ccc(CP(=O)(O)O)cc2)C(=O)N[C@H]2CCCCC3CC[C@@H](C(=O)N[C@@H](CCC(N)=O)C(=O)NCc4ccccc4)N3C2=O)CC1 (stereo partly drawn),> 100,> 100,–,> 100
CCCCCCCCCCCCCCCC(=O)N[C@H](Cc1ccc(OCP(=O)(O)O)cc1)C(=O)N[C@H]1CCCCC2CC[C@@H](C(=O)N[C@@H](CCC(N)=O)C(=O)NCc3ccccc3)N2C1=O (stereo partly drawn),< 50,< 100,–,< 5
